Measurements from paper PMC9260506, “Identification of Highly Cross-Reactive Mimotopes for a Public T Cell Response in Murine Melanoma” (Frontiers in Immunology, 2022).

Assays:
[1] = target: p15E peptide presented by H-2K^b, refolded pMHC (mouse | human | murine leukemia virus); assay: SPR
[2] = target: 7PPG2 TCR, recombinant soluble (mouse) (UniProt P01849); assay: SPR; settings: peptide-MHC
7PPG4 TCR = assay: Steady-state surface plasmon resonance, pMHC on immobilized 7PPG4 TCR; type: binding, mouse; settings: Figure 5C
Description: Recombinant soluble TCRs used for yeast library selections and surface plasmon resonance experiments were produced using a baculovirus expression system in Hi5 insect cells. TCR alpha chain extracellular domain sequences were cloned into pAcGP67a vector containing a 3C protease site ([…]) followed by an acidic leucine zipper, AviTag biotinylation site ([…]), and poly-histidine tag (6×His). TCR beta chain extracellular domain sequences were cloned into pAcGP67a vector containing a 3C site followed by a basic leucine zipper and poly-histidine tag. 2 μg of each plasmid was transfected into SF9 insect cells with BestBac 2.0 linearized baculovirus DNA (Expression Systems) using Cellfectin II reagent (Invitrogen). SF9s were then infected with 1:1000 primary transfection supernatant to amplify the virus. Titration of alpha and beta chain viruses was performed to identify the optimal ratio of the two viruses for heterodimer formation. Protein was then produced by large scale infection of Hi5 cells as previously described ([10]). Briefly, secreted protein was purified using HisPur Ni-NTA resin (Thermo) for immobilized metal affinity chromatography (IMAC) and biotinylated overnight at 4°C using biotin (Avidity), ATP, and BirA ligase. […] Biotinylation efficiency was assessed by adding streptavidin (ThermoFisher) to ~2 ug of protein and running an SDS-PAGE gel. […]

[3] = system: 7PPG4-transduced 58^-/- T cells; assay: T cell activation, peptide-loaded DC2.4 co-culture, IL-2 ELISA (7PPG4); type: cell-based, murine; settings: DC2.4 cells loaded with various peptide concentrations 2-3 h, 24 h co-culture
Procedure: (§1) T cell line generation: For creation of T cell lines, TCR alpha chain was linked to TCR beta chain by a P2A sequence, followed by EGFP fluorescent protein sequence, in the MP71 retroviral vector. 80% confluent HEK293-T cells were transfected with 2 μg of TCR plasmid and 1 μg pCL-Eco helper plasmid with 6 μg (3× DNA mass) PEI (Santa Cruz Biotech) to create retrovirus. 2 days later, the supernatant was then used to transduce CD8^+ 58^-/^- cells with 0.8 μg/mL polybrene (Santa Cruz Biotech). Cells were spinfected at 1000×g and 32°C for 1.5 hours. 2 days later, transduction was assessed by expression of EGFP and by staining with an antibody against murine TCR β chain. If necessary, cells were sorted on EGFP on a FACSAria (BD) to obtain a >95% transduced population.
(§2) DC co-culture: 25,000 DC2.4 cells per well were incubated with various concentrations of peptide in 100 μL RPMI complete media for 2-3 hours before the addition of T cells. 25,000 T cells per well were added in 100 μL RPMI complete media in 96 well plates.
(§3) After 24 hours, plates were spun down at 500×g for 5 minutes, and 2×100 μL samples of supernatant were saved and frozen at -80°C. T cell activation was assessed using mouse IL-2 ELISA kits (Invitrogen), with samples diluted 1:2 - 1:20 for comparison to the standard curve. Absorbance values were measured with a Tecan Infinite m200 Pro plate reader.

CD8^+ T cells = assay: Intracellular cytokine staining of peripheral blood after vaccination; type: in vivo, C57BL/6 mice; settings: for CD8^+ T cell reactivity to p15E stimulation (ICS): Figure 7C
Description: MSA and TTR long peptide fusions were produced in house by the Wittrup lab as previously described ([23]). Long peptide-amphiphile fusion vaccines were obtained from Northwestern University Peptide Synthesis Core (p15E and mimotopes) or produced in house by the Irvine lab as previously described (OVA amph) ([16], [22]). Lipo-CpG was produced in house by the Irvine lab as previously described ([16], [22]). […] Mice were primed and then boosted at 2 and 4 weeks following prime (n=5 per group).
One week following each vaccine boost, blood samples were drawn retro-orbitally from each mouse. 50-80 μL was used per well for stimulation with peptide, and excess blood from each group was pooled and used for a positive and negative control well per group. Red blood cells were lysed with ACK lysis buffer (Thermo), and then cells were washed once with FACS buffer. In 100 μL/well RPMI complete media, sample wells were stimulated with 10 μg/mL peptide (p15E, 7PPG2-mim6, or 7PPG4-mim2), and positive control wells were stimulated with 10 ng/mL PMA and 10 μg/mL ionomycin. Cells were stimulated for two hours before 1 uL/well brefeldin A (BD GolgiPlug) was added, and then cells were incubated for an additional four hours. Cells were washed twice with cold PBS and then stained with Zombie Aqua 1:1000 and Fc block 1:100 in 100 μL/well PBS for 15 minutes at room temperature. Cells were then stained with CD8 APC 1:100 in 100 μL/well FACS buffer for 20 minutes at room temperature. Cells were fixed and permeabilized using 100 μL/well of CytoFix/CytoPerm solution (BD) for 20 minutes at 4°C. Following two washes with Perm/Wash buffer (BD), cells were stained with IFN-γ PE and TNF-α AF488 1:75 each in 50 μL/well Perm/Wash buffer for 30 minutes at 4°C. Following two washes with FACS buffer, samples were run on an LSR II (BD) or Cytoflex (Beckman Coulter) and data analyzed in FlowJo v10. Outliers were identified using the ROUT method with Q = 1% (GraphPad Prism 9).

B16F10 melanoma cells = assay: Prophylactic vaccination and B16F10 tumor challenge; type: in vivo, C57BL/6 mice
Procedure: (§4) MSA and TTR long peptide fusions were produced in house by the Wittrup lab as previously described ([23]). Long peptide-amphiphile fusion vaccines were obtained from Northwestern University Peptide Synthesis Core (p15E and mimotopes) or produced in house by the Irvine lab as previously described (OVA amph) ([16], [22]). Lipo-CpG was produced in house by the Irvine lab as previously described ([16], [22]). 5 nmol of vaccine and 1.24 nmol of lipo-CpG per injection were used in a volume of 100 μL PBS, sterile filtered, and injected subcutaneously at the tail base, 50 μL per side, using 31G insulin syringes. Mice were primed and then boosted at 2 and 4 weeks following prime (n=5 per group).
Two weeks after the second vaccine boost, 10^5 B16F10 cells in 100 μL PBS were injected subcutaneously on the right flank using 29G insulin syringes. Tumor areas were calculated by multiplying length and width taken by caliper measurement every other day beginning three days post-tumor inoculation. Mice were euthanized when tumor area exceeded 100 mm^2.

[4] = system: 7PPG2-transduced 58^-/- T cells; assay: T cell activation, peptide-loaded DC2.4 co-culture, IL-2 ELISA (7PPG2); type: cell-based, murine; settings: DC2.4 cells loaded with various peptide concentrations 2-3 h, 24 h co-culture
Procedure: as §1, §2, §3

p15E-pulsed splenocytes = assay: In vivo killing assay of peptide-pulsed donor splenocytes; design: species or system C57BL/6 mice; settings: day 36 spleens, 24 h after i.v. injection of about 1:1 CFSE-dyed p15E-pulsed and violet-dyed OVA-pulsed splenocytes; amphiphile vaccines days 0, 14, 28; N=3 mice/group
Procedure: as §4
Experimental mice were vaccinated as described above. A separate group of age-matched female C57BL/6 donor mice were euthanized and spleens removed. In a sterile hood, single cell suspensions were created by mashing spleens through 70 μm mesh filters. Red blood cells were lysed using ACK lysis buffer (Thermo), and cells were washed twice with PBS. […] 24 hours later, experimental mice were euthanized and splenocytes analyzed to compare ratios of CFSE-dyed to Violet-dyed cells. Samples were run on a Cytoflex and data analyzed in FlowJo v10.

With “7ELG1 TCR, recombinant soluble (from UniProt P01849)” the Kd [1] was 39 µM.
“7PPG2 TCR, recombinant soluble (from UniProt P01849)” was tested, and the Kd [1] was 23 µM.
“7PPG3 TCR, recombinant soluble (from UniProt P01849)” showed a Kd [1] of 20 µM.
Work on “7PPG4-mim2 mimotope () presented by H-2K^b, refolded pMHC (from UniProt P61769 21-119)” yielded a Kd [2] of 42 µM.
In the case of “KSPWFITL [7PPG4-mim2, p15E mimotope identified from yeast display pMHC library selection with 7PPG4 TCR]”, the “affinity for 7PPG4 relative to p15E” value (7PPG4 TCR; SPR, 5 μM compared to 26 μM) is reported as “five-fold higher affinity”, the “T cell activation (IL-2 secretion)” value [3] is reported as “much more potently than p15E” and the “CD8^+ T cell reactivity to 7PPG2-mim6 stimulation (ICS)” value (CD8^+ T cells; amphiphile vaccine + lipo-CpG, days 21 and 35, Supplementary Figure 7A) is reported as “some cross reactivity to 7PPG2-mim6 stimulation”. The “CD8^+ T cells reacting to 7PPG4-mim2 stimulation (ICS)” value (CD8^+ T cells; day 21, 5 nmol amphiphile vaccine + lipo-CpG, Supplementary Figure 7B, N=5) was 40 % of CD8^+ T cells, the “CD8^+ T cell reactivity to p15E stimulation (ICS)” value (CD8^+ T cells; day 35, 5 nmol amphiphile vaccine + 1.24 nmol lipo-CpG, boosts days 14 and 28, N=5) was 40% and the Autoreactivity in vivo (B16F10 melanoma cells; all in vivo studies with the amphiphile vaccine) was “did not show evidence of deleterious autoreactivity”.
With “KSPWFTTL [p15E, previously identified MLVenv peptide presented by the class I MHC H-2K^b]” the “T cell activation (IL-2 secretion)” value [4] was “activated in a dose-dependent manner”, the “T cell activation (IL-2 secretion)” value [3] was “activated in a dose-dependent manner” and the “CD8^+ T cell reactivity to p15E stimulation (ICS)” value (CD8^+ T cells; days 21 and 35, 5 nmol amphiphile vaccine + lipo-CpG, compared with adjuvant-only control) was “did not show any significant reactivity compared to the control group”. The “Survival after tumor challenge” value (B16F10 melanoma cells; first experiment, 1×10^5 B16F10 cells six weeks after prime, amphiphile vaccines, euthanized at tumor area >100 mm^2, N=5, Figure 7F) was “identical survival curves” and the “Fraction of p15E-pulsed cells remaining” value (p15E-pulsed splenocytes) was “little difference in fraction of p15E-pulsed cells compared to the control group”.
SIINFEKL [OVA] was tested, and the “CD8^+ T cell reactivity to OVA (ICS)” value (CD8^+ T cells; killing-assay study, day 35, OVA amphiphile vaccine day 0, boosts days 14 and 28, N=3 mice/group, Supplementary Figure 6B) was 20% and the “Fraction of p15E-pulsed cells remaining” value (p15E-pulsed splenocytes) was “high fraction of p15E-pulsed cells remaining”.
For “SIYRYYGL [2C TCR cognate antigen, control peptide]”, the “T cell activation (IL-2 secretion)” value [4] was “no activation” and the “T cell activation (IL-2 secretion)” value [3] was “no activation”.
“VSPWFNTL [7PPG2-mim6, p15E mimotope identified from yeast display pMHC library selection with 7PPG2 TCR]” was tested, and the Kd (7PPG4 TCR; mimotope or p15E peptide displayed by H-2K^b as analyte, immobilized TCR, 25°C, steady state) was greater than 100 µM, the “T cell activation (IL-2 secretion)” value [4] was “much more potently than p15E” and the “CD8^+ T cell reactivity to 7PPG4-mim2 stimulation (ICS)” value (CD8^+ T cells; amphiphile vaccine + lipo-CpG, days 21 and 35, Supplementary Figure 7B) was “minimal reactivity to 7PPG4-mim2”.
